In ChEMBL document CHEMBL1201862, “PubChem BioAssay data set” (2004):
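Test compounds were applied to cells in 96-well plates for 48 hours at 5 doses. GI50 is the concentration that inhibits growth by half.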 Calls of active or inactive are those of the source. Cut-off read from the data, not from the text of the source: active = GI50 up to about 1.1 µM and inactive = higher.

What was measured:
Assay in all cases: NCI anticancer screen, dose series, 48 h
UO-31 = system: UO-31
BT-549 = system: BT-549
A549 = system: A549
MDA-MB-231 = system: MDA-MB-231
M14 = system: M14
LOX IMVI = system: LOX IMVI
MCF7 = system: MCF7
NCI/ADR-RES = system: NCI/ADR-RES
SW-620 = system: SW-620
MDA-MB-435 = system: MDA-MB-435
SNB-75 = system: SNB-75
MOLT-4 = system: MOLT-4
SF-268 = system: SF-268
EKVX = system: EKVX
K562 = system: K562
SF-539 = system: SF-539
NCI-H23 = system: NCI-H23
OVCAR-8 = system: OVCAR-8
SN12C = system: SN12C
COLO 205 = system: COLO 205
NCI-H460 = system: NCI-H460
OVCAR-3 = system: OVCAR-3
CAKI-1 = system: CAKI-1
T47D = system: T47D
SK-MEL-2 = system: SK-MEL-2
RXF 393 = system: RXF 393
SK-MEL-28 = system: SK-MEL-28
PC-3 = system: PC-3
UACC-257 = system: UACC-257
CCRF-CEM = system: CCRF-CEM
MDA-N = system: MDA-N
SNB-19 = system: SNB-19
IGROV-1 = system: IGROV-1
SK-OV-3 = system: SK-OV-3
RPMI-8226 = system: RPMI-8226
NCI-H226 = system: NCI-H226
HOP-62 = system: HOP-62
HCC 2998 = system: HCC 2998
HL-60 = system: HL-60
HT-29 = system: HT-29
OVCAR-4 = system: OVCAR-4
KM12 = system: KM12
HCT-15 = system: HCT-15
Malme-3M = system: Malme-3M
HOP-92 = system: HOP-92
OVCAR-5 = system: OVCAR-5
786-0 = system: 786-0
HCT-116 = system: HCT-116
U-251 = system: U-251
Hs-578T = system: Hs-578T
UACC-62 = system: UACC-62
SK-MEL-5 = system: SK-MEL-5
SF-295 = system: SF-295
TK-10 = system: TK-10
ACHN = system: ACHN
A498 = system: A498

## CCCCCCCCOP(=O)(O)OP(=O)(O)OCC1OC(n2ccc(N)nc2=O)C(O)C1O (stereo unspecified)
UO-31
  GI50: > 100 µM (inactive)
BT-549
  GI50: > 100 µM (inactive)
A549
  GI50: > 100 µM (inactive)
MDA-MB-231
  GI50: > 100 µM (inactive)
M14
  GI50: > 100 µM (inactive)
LOX IMVI
  GI50: > 100 µM (inactive)
MCF7
  GI50: > 100 µM (inactive)
NCI/ADR-RES
  GI50: > 100 µM (inactive)
SW-620
  GI50: > 100 µM (inactive)
MDA-MB-435
  GI50: > 100 µM (inactive)
SNB-75
  GI50: > 100 µM (inactive)
MOLT-4
  GI50: > 100 µM (inactive)
SF-268
  GI50: > 100 µM (inactive)
EKVX
  GI50: > 100 µM (inactive)
K562
  GI50: > 100 µM (inactive)
SF-539
  GI50: > 100 µM (inactive)
NCI-H23
  GI50: > 100 µM (inactive)
OVCAR-8
  GI50: > 100 µM (inactive)
SN12C
  GI50: > 100 µM (inactive)
COLO 205
  GI50: > 100 µM (inactive)
NCI-H460
  GI50: > 100 µM (inactive)
OVCAR-3
  GI50: > 100 µM (inactive)
CAKI-1
  GI50: > 100 µM (inactive)
T47D
  GI50: > 100 µM (inactive)
SK-MEL-2
  GI50: > 100 µM (inactive)
RXF 393
  GI50: > 100 µM (inactive)
SK-MEL-28
  GI50: > 100 µM (inactive)
PC-3
  GI50: > 100 µM (inactive)
UACC-257
  GI50: > 100 µM (inactive)
CCRF-CEM
  GI50: > 100 µM (inactive)
MDA-N
  GI50: > 100 µM (inactive)
SNB-19
  GI50: > 100 µM (inactive)
IGROV-1
  GI50: > 100 µM (inactive)
SK-OV-3
  GI50: > 100 µM (inactive)
RPMI-8226
  GI50: > 100 µM (inactive)
NCI-H226
  GI50: > 100 µM (inactive)
HOP-62
  GI50: > 100 µM (inactive)
HCC 2998
  GI50: > 100 µM (inactive)
HL-60
  GI50: > 100 µM (inactive)
HT-29
  GI50: > 100 µM (inactive)
OVCAR-4
  GI50: > 100 µM (inactive)
KM12
  GI50: > 100 µM (inactive)
HCT-15
  GI50: > 100 µM
Malme-3M
  GI50: > 100 µM (inactive)
HOP-92
  GI50: > 100 µM (inactive)
OVCAR-5
  GI50: > 100 µM (inactive)
786-0
  GI50: > 100 µM (inactive)
HCT-116
  GI50: > 100 µM (inactive)
U-251
  GI50: > 100 µM (inactive)
Hs-578T
  GI50: > 100 µM (inactive)
UACC-62
  GI50: > 100 µM (inactive)
SK-MEL-5
  GI50: > 100 µM (inactive)
SF-295
  GI50: > 100 µM (inactive)
TK-10
  GI50: > 100 µM (inactive)
ACHN
  GI50: > 100 µM (inactive)
A498
  GI50: > 100 µM (inactive)
